Patent US7846917B2, “18-Methyl-19-norandrost-4-ene 17, 17-spiro ether (18-methyl-19-nor-20-spirox-4-en-3-one), and pharmaceutical products comprising the same” (Bayer Schering Pharma AG, priority 2006, dated 2010)

Key:
progesterone receptor = molecular target: T1, progesterone receptor (Oryctolagus cuniculus, UniProt P06186); test: progesterone receptor binding assay using cytosol from rabbit uterus homogenate; settings: for PR [KF]: 3H-progesterone = 1; for PR [RBA]: 3H-progesterone = 100
T1 construct: cytosol from rabbit uterus homogenate; from tissue; host or cells: rabbit uterus (cytosol of homogenate)
T1 sequence (P06186 1-930): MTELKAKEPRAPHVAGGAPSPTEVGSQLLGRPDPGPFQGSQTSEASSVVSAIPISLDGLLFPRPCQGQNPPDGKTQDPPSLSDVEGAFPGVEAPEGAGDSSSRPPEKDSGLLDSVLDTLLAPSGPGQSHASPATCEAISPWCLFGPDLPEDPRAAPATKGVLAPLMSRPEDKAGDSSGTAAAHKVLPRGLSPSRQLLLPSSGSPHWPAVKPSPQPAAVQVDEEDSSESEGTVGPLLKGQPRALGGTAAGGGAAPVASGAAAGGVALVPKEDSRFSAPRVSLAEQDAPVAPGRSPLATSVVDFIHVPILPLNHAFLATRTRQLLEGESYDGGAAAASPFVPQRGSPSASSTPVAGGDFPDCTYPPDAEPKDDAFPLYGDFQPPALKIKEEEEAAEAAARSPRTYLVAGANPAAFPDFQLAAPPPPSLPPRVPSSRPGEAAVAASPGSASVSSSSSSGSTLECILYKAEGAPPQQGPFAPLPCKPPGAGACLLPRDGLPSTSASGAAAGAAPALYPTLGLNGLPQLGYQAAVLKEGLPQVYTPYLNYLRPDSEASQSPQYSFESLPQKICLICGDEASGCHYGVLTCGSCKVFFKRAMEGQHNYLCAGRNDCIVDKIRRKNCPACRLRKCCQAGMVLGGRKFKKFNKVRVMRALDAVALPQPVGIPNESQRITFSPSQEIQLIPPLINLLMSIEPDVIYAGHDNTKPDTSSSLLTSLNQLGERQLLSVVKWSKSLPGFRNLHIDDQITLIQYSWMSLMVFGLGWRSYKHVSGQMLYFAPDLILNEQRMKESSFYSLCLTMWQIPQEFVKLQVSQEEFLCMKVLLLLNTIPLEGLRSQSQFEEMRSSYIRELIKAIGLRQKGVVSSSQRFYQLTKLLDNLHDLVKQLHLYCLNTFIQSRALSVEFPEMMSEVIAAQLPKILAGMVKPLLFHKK
From the text: (§1) This object is achieved by the provision of the 18-methyl-15β,16β-methylene-19-nor-20-spirox-4-en-3-ones of the general formula I described herein.

[1] = molecular target: T2, mineralocorticoid receptor (Rattus norvegicus, UniProt P22199); test: mineralocorticoid receptor binding, rat kidney homogenate; settings: for MR [KF]: 3H-aldosterone = 1; for MR [RBA]: 3H-aldosterone = 100
T2 construct: mineralocorticoid receptor from rat kidney homogenate; from tissue; host or cells: rat kidney homogenate
T2 sequence (P22199 1-981): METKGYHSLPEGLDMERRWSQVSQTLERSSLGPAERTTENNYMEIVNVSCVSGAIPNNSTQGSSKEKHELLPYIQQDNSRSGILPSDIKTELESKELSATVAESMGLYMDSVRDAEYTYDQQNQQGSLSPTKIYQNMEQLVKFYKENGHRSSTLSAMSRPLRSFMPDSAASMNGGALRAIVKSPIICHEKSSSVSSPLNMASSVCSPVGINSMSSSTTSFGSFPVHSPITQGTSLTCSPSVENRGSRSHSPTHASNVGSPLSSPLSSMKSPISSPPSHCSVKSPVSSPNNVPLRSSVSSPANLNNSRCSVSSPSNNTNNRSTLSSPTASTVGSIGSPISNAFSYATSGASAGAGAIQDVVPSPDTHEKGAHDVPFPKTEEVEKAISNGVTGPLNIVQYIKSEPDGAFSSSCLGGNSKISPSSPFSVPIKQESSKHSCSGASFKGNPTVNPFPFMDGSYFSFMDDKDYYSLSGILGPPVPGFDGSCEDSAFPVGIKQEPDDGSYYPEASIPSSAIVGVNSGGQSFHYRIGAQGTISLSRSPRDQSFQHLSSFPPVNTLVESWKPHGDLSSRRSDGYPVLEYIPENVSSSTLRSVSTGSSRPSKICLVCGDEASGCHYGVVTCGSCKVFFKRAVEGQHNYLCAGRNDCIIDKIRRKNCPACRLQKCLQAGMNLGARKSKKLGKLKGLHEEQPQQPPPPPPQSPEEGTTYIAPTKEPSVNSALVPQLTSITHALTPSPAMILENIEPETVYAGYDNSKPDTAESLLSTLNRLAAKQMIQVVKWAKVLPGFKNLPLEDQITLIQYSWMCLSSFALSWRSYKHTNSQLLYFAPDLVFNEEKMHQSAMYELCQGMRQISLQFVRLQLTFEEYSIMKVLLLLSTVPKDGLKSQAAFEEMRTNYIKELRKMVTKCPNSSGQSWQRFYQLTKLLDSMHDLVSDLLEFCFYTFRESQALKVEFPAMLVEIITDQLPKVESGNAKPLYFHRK
From the text: as §1

PR [KF] (progesterone receptor) | PR [RBA] (progesterone receptor) | MR [KF] [1] | MR [RBA] [1] | SMILES
2.355 | 42 | 0.7 | 143 | CC[C@]12CC[C@H]3[C@H]([C@@H]1[C@@H]1C[C@@H]1[C@@]21CCCO1)[C@H](C1CC1)CC1=CC(=O)CC[C@@H]13 [Example 12, 7α-Cyclopropyl-18-methyl-15β,16β-methylene-19-nor-20-spirox-4-en-3-one]
3.45 | 29 | 7.8 | 13 | CCC12CCC3C4CCC(=O)C(C)=C4C4CC4C3C1C1CC1C21CCCO1 (stereo not drawn) [Example 17, 4,18-Dimethyl-6β,7β,15β,16β-dimethylene-19-nor-20-spirox-4-en-3-one]
3.245 | 31 | 7.6 | 13 | CC[C@]12CC[C@H]3[C@@H](CCC4=C(C)C(=O)CC[C@@H]43)[C@@H]1[C@@H]1C[C@@H]1[C@@]21CCCO1 [Example 14, 4,18-Dimethyl-150,16β-methylene-19-nor-20-spirox-4-en-3-one]
3.01 | 33 | 88 | 1 | CC[C@]12CC[C@H]3[C@@H]([C@H]4C[C@H]4C4=C(Cl)C(=O)CC[C@@H]43)[C@@H]1[C@@H]1C[C@@H]1[C@@]21CCCO1 [Example 18, 4-Chloro-18-methyl-6β,7β,15β,16β-dimethylene-19-nor-20-spirox-4-en-3-one]

More lines, now with the values behind:

SMILES | PR [KF] (progesterone receptor) | PR [RBA] (progesterone receptor) | MR [KF] [1] | MR [RBA] [1]
CC[C@]12CC[C@H]3[C@H]([C@@H]1[C@@H]1C[C@@H]1[C@@]21CCCO1)[C@H](C)CC1=CC(=O)CC[C@@H]13 [Example 6, 7α,18-Dimethyl-15β,16β-methylene-19-nor-20-spirox-4-en-3-one] | 1.13 | 88 | 0.6 | 167
C[C@]12CCC(=O)C=C1[C@@H]1C[C@@H]1[C@H]1[C@@H]3[C@@H]4C[C@@H]4[C@@]4(CCC(=O)O4)[C@@]3(C)CC[C@@H]12 [DRSP, 6β,7β-15β,16β-dimethylene-3-oxo-17-pregn-4-ene-21,17β-carbolactone, reference compound] | 2.5 | 40 | 0.3 | 333
CCC12CCC3C4CCC(=O)C=C4CC(C)C3C1C1CC1C21CCCO1 (stereo not drawn) [Example 7, 7β,18-Dimethyl-15β,16β-methylene-19-nor-20-spirox-4-en-3-one] | 1.08 | 93 | 0.5 | 200
CC[C@]12CCC3C4CCC(=O)C=C4C4CC4C3C1[C@@H]1C[C@@H]1[C@@]21CCCO1 (stereo partly drawn) [Example 2, 18-Methyl-6α,7α,15β,16β-dimethylene-19-nor-20-spirox-4-en-3-one] | 2.34 | 43 | 0.4 | 250
CCC1CC2=CC(=O)CCC2C2CCC3(CC)C(C4CC4C34CCCO4)C12 (stereo not drawn) [Example 9, 7β-Ethyl-18-methyl-15β,16β-methylene-19-nor-20-spirox-4-en-3-one] | 4.295 | 23 | 42 | 2
